Among the data in patent EP4752152A1, “STEROID COMPOUND, AND PREPARATION METHOD THEREFOR AND USE THEREOF” (Cholesgen (Shanghai) Co.Ltd., priority 2023, dated 2025) are IC50 values, retold here.

Each structure is given as a SMILES string.

The IC50 is the concentration that gives 50% inhibition.

The test system of one assay is SREBP pathway. In words: SREBP luciferase reporter gene system (SRE-luciferase assay). It is filed as cell-based, human. The note with it: Homo sapiens, Huh-7, 16 h, Huh-7/SRE-luc cells, sterol-deficient medium, 0.01-10 µM. As to the method:
Huh-7/SRE-luc cells were incubated in sterol-deficient medium (5% lipoprotein deficient serum, 2 µM lovastatin, 10 µM mevalonic acid) with corresponding concentrations of compounds for 16 hours. The Huh-7/SRE-luc cells were human hepatoma cell line Huh-7 stably expressing LDLR promotor-luciferase and green fluorescent protein (GFP). These cells were obtained by transfecting Huh-7 with pLDLR-promotor-luciferase and pEGFP-N1 plasmids, followed by screening under G418 antibiotic selection pressure. The Huh-7 cells were purchased from ATCC, the pLDLR-promotor-luciferase plasmid was obtained by molecular cloning methods, and the pEGFP-N1 plasmid was purchased from Addgene.
After compound treatment, the cells were lysed with lysis buffer (E397A, Promega). After the addition of luciferase substrate (E1500, Promega), the activity of SRE-driven luciferase was measured using a BioTek Synergy HTX microplate reader (including but not limited to this type of instrument). The fluorescence intensity of green fluorescent protein (EGFP) was also measured using the above BioTek microplate reader (including but not limited to this type of instrument) and served as an internal control. The ratio of SRE-driven luciferase activity divided by the fluorescence intensity of green fluorescent protein was used as an indicator of SREBP pathway activity. The test data for each test compound were analyzed using Prism software (with the DMSO-treated group as the reference to calculate the compound inhibition rate, fitted using the Prism log(inhibitor) vs. response--Variable slope (four-parameter) model, calculation formula: Y = Bottom + (Top - Bottom)/(1 + 10^((LogIC50 - X) × HillSlope))), to obtain the IC50 parameters of the compounds.
Using the method described in 1.1, the inhibitory effect of the compounds of the present disclosure on the SREBP pathway was tested. The concentration gradient for each compound was designed as 0.01, 0.03, 0.1, 0.3, 1.0, 3.0, and 10 µM, with the vehicle DMSO as the control.
As to `COc1nc(F)ccc1[C@@H](O)CC[C@@H](C)[C@H]1CC[C@H]2C3=C(F)C[C@H]4[C@@H](O)[C@@H](O)CC[C@]4(C)[C@H]3CC[C@]12C` [Compound 339, (1R,3aR,5aR,6R,7S,9aR,9bR,11aR)-4-fluoro-1-[(2R,5S)-5-(6-fluoro-2-methoxypyridin-3-yl)-5-hydroxypentan-2-yl]-9a,11a-dimethyl-2,3,3a,5,5a,6,7,8,9,9a,9b,10,11,11a-tetradecahydro-1H-cyclopenta[1,2-a]phenanthrene-6,7-diol], the IC50 was found to be 0.143 µM.

With `COc1cc(OC)c([C@H](O)CCC[C@@H](C)[C@H]2CC[C@H]3[C@H]4[C@H](CC[C@]23C)[C@@]2(C)CC[C@H](O)[C@H](O)[C@@H]2CC4(F)F)c(F)n1` (single isomer, unassigned) [Compound 235], the IC50 turned out to be 0.115 µM.

Regarding `C[C@H](CCCC(O)c1[nH]ncc1F)[C@H]1CC[C@H]2[C@H]3[C@H](CC[C@]12C)[C@@]1(C)CC[C@H](O)[C@H](O)[C@@H]1CC3(F)F` (stereo partly drawn) [Compound 237, (1R,3aS,3bS,5aR,6R,7S,9aR,9bS,11aR)-4,4-difluoro-1-[(2R)-6-(4-fluoro-2H-pyrazol-3-yl)-6-hydroxyhexan-2-yl]-9a,11a-dimethylhexadecahydro-1H-cyclopenta[1,2-a]phenanthrene-6,7-diol], the IC50 was determined as 0.726 µM.

As for `C[C@H](CCCC(O)c1c(F)cccc1F)[C@H]1CC[C@H]2[C@H]3[C@H](CC[C@]12C)[C@@]1(C)CC[C@H](O)[C@H](O)[C@@H]1CC3(F)F` (stereo partly drawn) [Compound 161, (1R,3aS,3bS,5aR,6R,7 S,9aR,9bS,11aR)-1-[(2R)-6-(2,6-Difluorophenyl)-6-hydroxyhexan-2-yl]-4,4-difluoro-9a,11a-dimethylhexadecahyd ro-1H-cyclopenta[1,2-a]phenanthrene-6,7-diol], the IC50 is 0.1 µM.

For the molecule `C[C@H](CCCC1(O)CC1)[C@H]1CC[C@H]2[C@H]3[C@H](CC[C@]12C)[C@@]1(C)CC[C@H](O)[C@H](O)[C@@H]1CC3(F)F` [Compound 93, (1R,3aS,3bS,5aR,6R,7S,9aR,9bS,11aR)-4,4-difluoro-1-[(2R)-5-(hydroxycyclopropyl)pentan-2-yl]-9a,11a-dimethylhexadecahydro-1H-cyclopenta[1,2-a]phenanthrene-6,7-diol], the IC50 stood at 0.613 µM.

Consider `COc1ncncc1C(O)CCC[C@@H](C)[C@H]1CC[C@H]2[C@H]3[C@H](CC[C@]12C)[C@@]1(C)CC[C@H](O)[C@H](O)[C@@H]1CC3(F)F` (stereo partly drawn) [Compound 152, (1R,3aS,3bS,5aR,6R,7S,9aR,9bS,11aR)-4,4-difluoro-1-[(2R)-6-hydroxy-6-(4-methoxypyrimidin-5-yl)hexan-2-yl]-9a,11a-dimethylhexadecahydro-1H-cyclopenta[1,2-a]phenanthrene-6,7-diol], for which the IC50 came to 0.14 µM.

Regarding `COc1cc(F)ccc1[C@H](O)CCC[C@@H](C)[C@H]1CC[C@H]2C3=C(F)C[C@H]4[C@@H](O)[C@@H](O)CC[C@]4(C)[C@H]3CC[C@]12C` [Compound 132, (1R,3aR,5aR,6R,7S,9aR,9bR,11aR)-4-fluoro-1-[(2R,6R)-6-(4-fluoro-2-methoxyphenyl)-6-hydroxyhexan-2-yl]-9a,11a-dimethyl-2,3,3a,5,5a,6,7,8,9,9a,9b,10,11,11a-tetradecahydro-1H-cyclopenta[1,2-a]phenanthrene-6,7-diol], the IC50 is 0.096 µM.

With `COc1cc(Cl)ccc1[C@@H](O)CCC[C@@H](C)[C@H]1CC[C@H]2[C@H]3[C@H](CC[C@]12C)[C@@]1(C)CC[C@H](O)[C@H](O)[C@@H]1CC3(F)F` [Compound 112, (1R,3aS,3bS,5aR,6R,7S,9aR,9bS,11aR)-1-[(2R,6S)-6-(4-chloro-2-methoxyphenyl)-6-hydroxyhexan-2-yl]-4,4-difluoro-9a,11a-dimethylhexadecahydro-1H-cyclopenta[1,2-a]phenanthrene-6,7-diol], the 50% inhibitory concentration (IC50) was determined as 0.318 µM.

For the molecule `C[C@H](CCC[C@H](O)c1nc2ccccc2n1C)[C@H]1CC[C@H]2[C@H]3[C@H](CC[C@]12C)[C@@]1(C)CC[C@H](O)[C@H](O)[C@@H]1CC3(F)F` [Compound 306, (1R,3aS,3bS,5aR,6R,7S,9aR,9bS,11aR)-4,4-difluoro-1-[(2R,6S)-6-hydroxy-6-(1-methylbenzo[d]imidazol-2-yl)hexan-2-yl]-9a,11a-dimethylhexadecahydro-1H-cyclopenta[1,2-a]phenanthrene-6,7-diol], the IC50 came to 0.121 µM.

Consider `C[C@H](CCN(C)C(=O)c1ccccc1F)[C@H]1CC[C@H]2[C@@H]3CC[C@@]4(C)[C@@H](O)[C@@H](O)CC[C@]4(C)[C@H]3CC[C@]12C` [Compound 15A, 2-fluoro-N-[(3R)-3-[(1R,3aS,3bS,5aR,6R,7S,9aR,9bS,11aR)-6,7-dihydroxy-5a,9a,11a-trimethylhexadecahydro-1H-cyclopenta[1,2-a]phenanthren-1-yl]butyl]-N-methylbenzamide], for which the half-inhibitory concentration (IC50) was 0.37 µM.

Regarding `C[C@H](CCC[C@H](O)c1nn(C)c2ccccc12)[C@H]1CC[C@H]2[C@H]3[C@H](CC[C@]12C)[C@@]1(C)CC[C@H](O)[C@H](O)[C@@H]1CC3(F)F` [Compound 323, (1R,3aS,3bS,5aR,6R,7S,9aR,9bS,11aR)-4,4-difluoro-1-[(2R,6S)-6-hydroxy-6-(1-methylindazol-3-yl)hexan-2-yl]-9a,11a-dimethylhexadecahydro-1H-cyclopenta[1,2-a]phenanthrene-6,7-diol], the IC50 stood at 0.262 µM.

Consider `COc1cccc(F)c1[C@@H](F)CCC[C@@H](C)[C@H]1CC[C@H]2[C@H]3[C@H](CC[C@]12C)[C@@]1(C)CC[C@H](O)[C@H](O)[C@@H]1CC3(F)F` (single isomer, unassigned) [Compound 215], for which the IC50 was 3.57 µM.

Turning to `COc1ccnc(F)c1C(O)CCC[C@@H](C)[C@H]1CC[C@H]2C3=C(F)C[C@H]4[C@@H](O)[C@@H](O)CC[C@]4(C)[C@H]3CC[C@]12C` (stereo partly drawn) [Compound 150, (1R,3aR,5aR,6R,7S,9aR,9bR,11aR)-4-fluoro-1-[(2R)-6-(2-fluoro-4-methoxypyridin-3-yl)-6-hydroxyhexan-2-yl]-9a,11a-dimethyl-2,3,3a,5,5a,6,7,8,9,9a,9b,10,11,11a-tetradecahydro-1H-cyclopenta[1,2-a]phenanthrene-6,7-diol], the concentration for half-maximal inhibition (IC50) was found to be 0.19 µM.

The assay is the same for the next values; noted with them: Huh-7/SRE-luc cells, sterol-deficient medium, 16 hours, 0.01-10 µM.
Regarding `C[C@H](CCC[C@@H](O)c1cc2ccccc2o1)[C@H]1CC[C@H]2[C@H]3[C@H](CC[C@]12C)[C@@]1(C)CC[C@H](O)[C@H](O)[C@@H]1CC3(F)F` [Compound 322, (1R,3aS,3bS,5aR,6R,7S,9aR,9bS,11aR)-1-[(2R,6R)-6-(1-benzofuran-2-yl)-6-hydroxyhexan-2-yl]-4,4-difluoro-9a,11a-dimethylhexadecahydro-1H-cyclopenta[1,2-a]phenanthrene-6,7-diol], the IC50 was 0.339 µM.

Turning to `C[C@H](CCCC(O)c1cncc2c1cnn2C)[C@H]1CC[C@H]2[C@H]3[C@H](CC[C@]12C)[C@@]1(C)CC[C@H](O)[C@H](O)[C@@H]1CC3(F)F` (single isomer, unassigned) [Compound 288, (1R,3aS,3bS,5aR,6R,7S,9aR,9bS,11aR)-4,4-difluoro-1-[(2R,6R)-6-hydroxy-6-(1-methylpyrazolo[3,4-c]pyridin-4-yl)hexan-2-yl]-9a,11a-dimethylhexadecahydro-1H-cyclopenta[1,2-a]phenanthrene-6,7-diol or (1R,3aS,3bS,5aR,6R,7S,9aR,9bS,11aR)-4,4-difluoro-1-[(2R,6S)-6-hydroxy-6-(1-methylpyrazolo[3,4-c]pyridin-4-yl)hexan-2-yl]-9a,11a-dimethylhexadecahydro-1H-cyclopenta[1,2-a]phenanthrene-6,7-diol], the IC50 was 0.388 µM.

Regarding `C[C@H](CCCC(O)c1cnc2c(c1)OC(F)(F)O2)[C@H]1CC[C@H]2[C@H]3[C@H](CC[C@]12C)[C@@]1(C)CC[C@H](O)[C@H](O)[C@@H]1CC3(F)F` (single isomer, unassigned) [Compound 286], the IC50 was found to be 0.26 µM.

Consider `COc1nc(C(O)CCC[C@@H](C)[C@H]2CC[C@H]3[C@H]4[C@H](CC[C@]23C)[C@@]2(C)CC[C@H](O)[C@H](O)[C@@H]2CC4(F)F)cs1` (single isomer, unassigned) [Compound 220, (1R,3aS,3bS,5aR,6R,7S,9aR,9bS,11aR)-4,4-difluoro-1-[(2R,6R)-6-hydroxy-6-(2-methoxy-1,3-thiazol-4-yl)hexan-2-yl]-9a,11a-dimethylhexadecahydro-1H-cyclopenta[1,2-a]phenanthrene-6,7-diol or (1R,3aS,3bS,5aR,6R,7S,9aR,9bS,11aR)-4,4-difluoro-1-[(2R,6S)-6-hydroxy-6-(2-methoxy-1,3-thiazol-4-yl)hexan-2-yl]-9a,11a-dimethylhexadecahydro-1H-cyclopenta[1,2-a]phenanthrene-6,7-diol], for which the IC50 was determined as 0.04 µM.
